Measurements published in publication PMC10879502, “Linking ATP and allosteric sites to achieve superadditive binding with bivalent EGFR kinase inhibitors” (Communications Chemistry, 2024).

Tests used:
Experiment in all cases: KINOMEscan
Type in all cases: binding
Details in all cases: 1 μM
[1] = biological target: T1, IKK-beta (Homo sapiens, UniProt O14920)
T1 construct: purchased Eurofins DiscoverX (KINOMEscan)

[2] = biological target: AMPK-alpha1 (Homo sapiens, UniProt Q13131)
[3] = biological target: PAK7 (Homo sapiens, UniProt Q9P286)
[4] = biological target: T2, DRAK2 (Homo sapiens, UniProt O94768)
T2 construct: purchased Eurofins DiscoverX Corporation

[5] = biological target: RPS6KA4(Kin.Dom.2-C-terminal) (Homo sapiens, UniProt O75676)
[6] = biological target: T3, DMPK (Homo sapiens, UniProt Q09013)
T3 construct: purchased Eurofins DiscoverX Corporation

[7] = biological target: T4, CAMK1D (Homo sapiens, UniProt Q8IU85)
T4 construct: purchased Eurofins DiscoverX Corporation (KINOMEscan)

[8] = biological target: NEK6 (Homo sapiens, UniProt Q9HC98)
[9] = biological target: T5, BRAF (Homo sapiens, UniProt P15056)
T5 construct: purchased Eurofins DiscoverX Corporation (KINOMEscan)

[10] = biological target: T6, CAMK2D (Homo sapiens, UniProt Q13557)
T6 construct: purchased Eurofins DiscoverX Corporation (KINOMEscan)

[11] = biological target: T7, MEK5 (Homo sapiens, UniProt Q13163)
T7 construct: purchased Eurofins DiscoverX Corporation

[12] = biological target: ERBB4 (Homo sapiens, UniProt Q15303)
[13] = biological target: T8, LRRK2 (Homo sapiens, UniProt Q5S007)
T8 construct: purchased Eurofins DiscoverX Corporation

[14] = biological target: PIK3CA(M1043I) (Homo sapiens, UniProt P42336, M1043I)
[15] = biological target: T9, MST1R (Homo sapiens, UniProt Q04912)
T9 construct: purchased Eurofins DiscoverX Corporation

[16] = biological target: ERBB3 (Homo sapiens, UniProt P21860)
[17] = biological target: T10, MYLK2 (Homo sapiens, UniProt Q9H1R3)
T10 construct: purchased Eurofins DiscoverX Corporation

[18] = biological target: T11, FLT3(K663Q) (Homo sapiens, UniProt P36888, K663Q)
T11 construct: purchased Eurofins DiscoverX Corporation

[19] = biological target: T12, TSSK3 (Homo sapiens, UniProt Q96PN8)
T12 construct: purchased Eurofins DiscoverX Corporation

[20] = biological target: T13, TRKB (Homo sapiens, UniProt Q16620)
T13 construct: purchased Eurofins DiscoverX Corporation

[21] = biological target: RIPK4 (Homo sapiens, UniProt P57078)
[22] = biological target: T14, MAP4K2 (Homo sapiens, UniProt Q12851)
T14 construct: purchased Eurofins DiscoverX Corporation

[23] = biological target: T15, GRK7 (Homo sapiens, UniProt Q8WTQ7)
T15 construct: purchased Eurofins DiscoverX Corporation

[24] = biological target: RET(V804L) (Homo sapiens, UniProt P07949, V804L)
[25] = biological target: PDPK1 (Homo sapiens, UniProt O15530)
[26] = biological target: EGFR(G719C) (Homo sapiens, UniProt P00533, G719C)
[27] = biological target: CDK4-cyclinD3 (Homo sapiens, UniProt P11802)
[28] = biological target: CSK (Homo sapiens, UniProt P41240)
[29] = biological target: T16, MAP3K15 (Homo sapiens, UniProt Q6ZN16)
T16 construct: purchased Eurofins DiscoverX Corporation

[30] = biological target: SGK3 (Homo sapiens, UniProt Q96BR1)
[31] = biological target: RIPK1 (Homo sapiens, UniProt Q13546)
[32] = biological target: PRKD3 (Homo sapiens, UniProt O94806)
[33] = biological target: SRC (Homo sapiens, UniProt P12931)
[34] = biological target: FLT1 (Homo sapiens, UniProt P17948)
[35] = biological target: CSNK1A1 (Homo sapiens, UniProt P48729)
[36] = biological target: EPHA7 (Homo sapiens, UniProt Q15375)
[37] = biological target: T17, TRKC (Homo sapiens, UniProt Q16288)
T17 construct: purchased Eurofins DiscoverX Corporation

[38] = biological target: T18, ABL1(Q252H)-phosphorylated (Homo sapiens, UniProt P00519, Q252H)
T18 construct: purchased Eurofins DiscoverX Corporation

[39] = biological target: T19, IKK-epsilon (Homo sapiens, UniProt Q14164)
T19 construct: purchased Eurofins DiscoverX (KINOMEscan)

[40] = biological target: T20, FLT4 (Homo sapiens, UniProt P35916)
T20 construct: purchased Eurofins DiscoverX Corporation

[41] = biological target: T21, BMPR2 (Homo sapiens, UniProt Q13873)
T21 construct: purchased Eurofins DiscoverX Corporation (KINOMEscan)

[42] = biological target: PKMYT1 (Homo sapiens, UniProt Q99640)

Chain of SRC (P12931 whole entry): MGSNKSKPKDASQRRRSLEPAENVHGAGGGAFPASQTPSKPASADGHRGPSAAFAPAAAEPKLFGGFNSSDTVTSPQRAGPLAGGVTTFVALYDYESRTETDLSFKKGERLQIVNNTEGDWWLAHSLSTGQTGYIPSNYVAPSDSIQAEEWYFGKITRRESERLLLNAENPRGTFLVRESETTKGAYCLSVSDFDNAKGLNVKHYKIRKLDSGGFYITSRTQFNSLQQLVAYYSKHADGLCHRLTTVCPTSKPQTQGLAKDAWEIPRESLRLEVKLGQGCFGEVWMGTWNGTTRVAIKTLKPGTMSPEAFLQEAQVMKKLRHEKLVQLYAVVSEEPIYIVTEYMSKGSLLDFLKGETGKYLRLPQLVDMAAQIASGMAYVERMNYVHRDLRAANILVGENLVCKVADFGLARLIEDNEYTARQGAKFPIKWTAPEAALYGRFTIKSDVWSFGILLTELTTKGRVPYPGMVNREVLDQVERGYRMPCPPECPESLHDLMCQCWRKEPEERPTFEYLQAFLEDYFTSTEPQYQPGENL
Chain of PDPK1 (O15530 whole entry): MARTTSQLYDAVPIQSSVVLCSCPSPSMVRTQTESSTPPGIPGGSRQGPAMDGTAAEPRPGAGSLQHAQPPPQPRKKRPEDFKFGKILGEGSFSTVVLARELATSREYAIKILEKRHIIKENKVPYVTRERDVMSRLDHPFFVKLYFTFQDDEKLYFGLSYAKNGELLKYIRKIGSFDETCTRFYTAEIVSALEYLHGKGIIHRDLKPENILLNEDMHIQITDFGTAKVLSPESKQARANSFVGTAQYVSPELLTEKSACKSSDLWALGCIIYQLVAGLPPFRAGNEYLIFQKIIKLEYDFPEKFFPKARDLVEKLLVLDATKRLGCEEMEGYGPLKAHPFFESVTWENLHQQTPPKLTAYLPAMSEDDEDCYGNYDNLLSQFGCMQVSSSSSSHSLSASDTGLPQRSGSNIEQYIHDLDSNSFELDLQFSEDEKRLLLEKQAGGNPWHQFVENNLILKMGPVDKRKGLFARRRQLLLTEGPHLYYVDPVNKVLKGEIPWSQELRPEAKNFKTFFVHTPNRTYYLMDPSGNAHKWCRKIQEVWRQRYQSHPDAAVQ
T15 sequence (Q8WTQ7 whole entry): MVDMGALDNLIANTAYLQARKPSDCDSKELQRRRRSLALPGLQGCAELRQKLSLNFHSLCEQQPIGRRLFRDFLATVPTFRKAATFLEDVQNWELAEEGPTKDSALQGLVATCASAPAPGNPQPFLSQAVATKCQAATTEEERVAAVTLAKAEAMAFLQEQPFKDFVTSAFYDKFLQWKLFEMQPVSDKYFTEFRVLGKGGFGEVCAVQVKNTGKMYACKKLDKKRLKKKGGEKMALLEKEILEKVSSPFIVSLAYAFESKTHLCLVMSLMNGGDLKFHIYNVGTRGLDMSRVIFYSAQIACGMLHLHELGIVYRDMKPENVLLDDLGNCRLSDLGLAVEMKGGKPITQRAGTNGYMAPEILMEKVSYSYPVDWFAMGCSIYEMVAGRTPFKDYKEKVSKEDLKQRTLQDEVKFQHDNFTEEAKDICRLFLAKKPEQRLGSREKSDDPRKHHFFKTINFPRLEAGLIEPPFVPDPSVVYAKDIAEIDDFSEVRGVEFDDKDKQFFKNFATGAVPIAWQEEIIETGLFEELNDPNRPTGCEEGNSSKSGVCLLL
Chain of CDK4-cyclinD3 (P11802 whole entry): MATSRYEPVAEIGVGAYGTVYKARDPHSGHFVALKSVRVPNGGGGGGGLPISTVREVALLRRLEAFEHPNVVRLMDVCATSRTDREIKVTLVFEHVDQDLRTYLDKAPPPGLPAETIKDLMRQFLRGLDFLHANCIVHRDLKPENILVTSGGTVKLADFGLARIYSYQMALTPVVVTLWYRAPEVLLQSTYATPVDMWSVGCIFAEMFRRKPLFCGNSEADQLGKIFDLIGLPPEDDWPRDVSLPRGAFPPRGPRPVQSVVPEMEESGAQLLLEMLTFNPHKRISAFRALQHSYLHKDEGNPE
Chain of CDK4-cyclinD3 (P30281 whole entry partner): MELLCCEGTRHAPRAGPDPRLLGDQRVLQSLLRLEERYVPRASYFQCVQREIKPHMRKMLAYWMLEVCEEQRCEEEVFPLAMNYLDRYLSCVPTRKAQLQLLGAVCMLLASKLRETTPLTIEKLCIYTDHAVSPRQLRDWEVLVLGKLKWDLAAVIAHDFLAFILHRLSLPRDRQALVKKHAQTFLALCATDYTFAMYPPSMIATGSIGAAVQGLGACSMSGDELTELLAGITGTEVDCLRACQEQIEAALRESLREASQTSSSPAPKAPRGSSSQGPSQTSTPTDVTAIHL
Chain of ERBB4 (Q15303 26-1308): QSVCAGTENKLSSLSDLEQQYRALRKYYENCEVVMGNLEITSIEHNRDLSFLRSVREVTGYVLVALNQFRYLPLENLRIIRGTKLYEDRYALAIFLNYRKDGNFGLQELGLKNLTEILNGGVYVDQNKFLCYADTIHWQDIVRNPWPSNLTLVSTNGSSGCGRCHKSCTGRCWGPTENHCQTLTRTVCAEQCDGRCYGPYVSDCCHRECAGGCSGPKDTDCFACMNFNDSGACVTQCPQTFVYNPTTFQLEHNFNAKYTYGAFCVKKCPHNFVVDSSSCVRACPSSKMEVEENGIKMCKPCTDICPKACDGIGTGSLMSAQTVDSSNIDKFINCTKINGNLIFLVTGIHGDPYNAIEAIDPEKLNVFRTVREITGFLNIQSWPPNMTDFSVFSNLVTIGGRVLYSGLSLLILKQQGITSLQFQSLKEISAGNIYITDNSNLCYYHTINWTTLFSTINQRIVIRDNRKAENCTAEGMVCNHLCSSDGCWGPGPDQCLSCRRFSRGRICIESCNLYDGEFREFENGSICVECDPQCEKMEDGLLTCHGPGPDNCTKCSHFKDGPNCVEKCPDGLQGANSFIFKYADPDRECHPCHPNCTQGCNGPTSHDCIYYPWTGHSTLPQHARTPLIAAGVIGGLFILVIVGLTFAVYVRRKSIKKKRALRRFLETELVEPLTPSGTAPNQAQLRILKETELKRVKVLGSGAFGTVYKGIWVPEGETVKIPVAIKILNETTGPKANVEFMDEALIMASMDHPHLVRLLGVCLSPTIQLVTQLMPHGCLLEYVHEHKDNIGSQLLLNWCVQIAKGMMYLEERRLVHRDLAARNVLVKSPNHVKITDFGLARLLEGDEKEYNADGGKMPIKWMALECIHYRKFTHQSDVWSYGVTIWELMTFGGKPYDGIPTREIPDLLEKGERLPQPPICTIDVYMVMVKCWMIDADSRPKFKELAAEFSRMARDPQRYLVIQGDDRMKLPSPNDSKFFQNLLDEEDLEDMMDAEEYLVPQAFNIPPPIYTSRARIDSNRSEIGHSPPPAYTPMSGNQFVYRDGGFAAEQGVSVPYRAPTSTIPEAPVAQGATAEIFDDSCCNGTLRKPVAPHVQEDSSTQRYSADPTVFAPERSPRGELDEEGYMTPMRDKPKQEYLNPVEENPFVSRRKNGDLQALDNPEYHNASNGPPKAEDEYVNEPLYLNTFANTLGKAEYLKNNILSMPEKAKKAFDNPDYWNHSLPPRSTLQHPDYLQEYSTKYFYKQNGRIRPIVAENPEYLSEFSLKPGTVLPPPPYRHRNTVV
Chain of RPS6KA4(Kin.Dom.2-C-terminal) (O75676 411-674 limits assumed): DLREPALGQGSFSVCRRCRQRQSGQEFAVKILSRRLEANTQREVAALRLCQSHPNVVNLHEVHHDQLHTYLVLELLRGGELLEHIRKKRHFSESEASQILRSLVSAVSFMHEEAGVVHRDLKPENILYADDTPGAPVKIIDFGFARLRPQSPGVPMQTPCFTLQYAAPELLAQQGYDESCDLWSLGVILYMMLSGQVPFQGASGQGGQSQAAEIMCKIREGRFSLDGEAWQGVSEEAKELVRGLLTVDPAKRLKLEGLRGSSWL
T1 sequence (O14920 whole entry): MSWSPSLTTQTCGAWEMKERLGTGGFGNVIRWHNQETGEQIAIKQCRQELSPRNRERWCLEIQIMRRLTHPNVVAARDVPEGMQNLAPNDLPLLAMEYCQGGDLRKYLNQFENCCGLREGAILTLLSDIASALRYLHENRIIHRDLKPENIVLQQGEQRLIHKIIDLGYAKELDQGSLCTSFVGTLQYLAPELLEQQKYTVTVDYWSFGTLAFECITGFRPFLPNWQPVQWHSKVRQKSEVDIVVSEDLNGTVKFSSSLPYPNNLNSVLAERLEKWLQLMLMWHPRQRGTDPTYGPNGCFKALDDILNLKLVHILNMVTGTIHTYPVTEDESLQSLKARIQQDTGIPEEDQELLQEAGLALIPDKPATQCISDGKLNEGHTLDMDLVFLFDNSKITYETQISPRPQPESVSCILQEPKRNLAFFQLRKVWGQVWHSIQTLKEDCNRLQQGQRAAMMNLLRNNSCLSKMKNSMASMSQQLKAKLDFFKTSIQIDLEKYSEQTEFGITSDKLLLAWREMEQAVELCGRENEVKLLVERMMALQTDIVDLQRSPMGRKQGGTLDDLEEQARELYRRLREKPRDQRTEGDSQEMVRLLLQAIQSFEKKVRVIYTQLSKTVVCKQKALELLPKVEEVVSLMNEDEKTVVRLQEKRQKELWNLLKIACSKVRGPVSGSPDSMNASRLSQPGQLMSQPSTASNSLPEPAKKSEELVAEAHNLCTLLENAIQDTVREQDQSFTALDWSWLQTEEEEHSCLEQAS
T2 sequence (O94768 whole entry): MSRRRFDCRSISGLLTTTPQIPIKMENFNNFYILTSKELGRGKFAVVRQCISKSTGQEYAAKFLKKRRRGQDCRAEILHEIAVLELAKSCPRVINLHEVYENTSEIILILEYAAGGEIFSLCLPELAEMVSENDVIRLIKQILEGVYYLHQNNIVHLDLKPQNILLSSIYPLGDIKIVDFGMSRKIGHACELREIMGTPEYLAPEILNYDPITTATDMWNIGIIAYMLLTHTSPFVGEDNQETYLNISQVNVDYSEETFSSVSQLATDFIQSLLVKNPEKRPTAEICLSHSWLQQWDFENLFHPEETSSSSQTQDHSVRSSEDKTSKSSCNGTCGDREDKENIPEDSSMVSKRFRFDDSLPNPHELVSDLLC

C=CC(=O)Nc1ccc(OC)c(Nc2cc(-c3[nH]c(CC)nc3-c3cccc(NC(=O)c4cccc5c4NC(=O)c4ccccc4N5)c3)ccn2)c1 [Compound 4]
POC [1]: 88% of control | POC [2]: 81% of control | POC [3]: 77% of control | POC [4]: 94% of control | POC [5]: 75% of control | POC [6]: 45% of control | POC [7]: 100% of control | POC [8]: 100% of control | POC [9]: 90% of control | POC [10]: 88% of control | POC [11]: 41% of control | POC [12]: 4.9% of control | POC [13]: 93% of control | POC [14]: 55% of control | POC [15]: 85% of control | POC [16]: 84% of control | POC [17]: 84% of control | POC [18]: 87% of control | POC [19]: 100% of control | POC [20]: 100% of control | POC [21]: 100% of control | POC [22]: 36% of control | POC [23]: 99% of control | POC [24]: 99% of control | POC [25]: 84% of control | POC [26]: 6.5% of control | POC [27]: 49% of control | POC [28]: 14% of control | POC [29]: 74% of control | POC [30]: 90% of control | POC [31]: 100% of control | POC [32]: 67% of control | POC [33]: 73% of control | POC [34]: 100% of control | POC [35]: 56% of control | POC [36]: 100% of control | POC [37]: 87% of control | POC [38]: 90% of control | POC [39]: 100% of control | POC [40]: 100% of control | POC [41]: 88% of control | POC [42]: 99% of control
